Experimental data reported in US20110281798A1, “Methods for Lowering Plasma Glucagon with Exendins and Exendin Agonist Analogs” (AMYLIN PHARMACEUTICALS, INC., priority 1999, published 2011).

How the values were obtained:
diabetic db/db mice = assay: Plasma glucose lowering in diabetic db/db mice, dose response; type: in vivo, mouse
Sprague-Dawley rats = assay: Insulinotropic action during intravenous glucose challenge in rats; type: in vivo, rat; settings: 30 pmol/kg/min i.v.

## Leu^14, Phe^25 1-28 exendin-4 (HGEGTFTSDLSKQLEEEAVRLAIEFLKN) [AC3177, a shortened analog of exendin 4]
Diabetic db/db mice; model not stated at b253
  glucose lowering activity compared with exendin 4: nearly equipotent activity to exendin 4

## GLP-1 [7-36]NH2
Sprague-Dawley rats; n.s. versus saline
  Increase of 60-min insulin AUC versus saline: 20%
Sprague-Dawley rats; saline 21.7
  Plasma glucose after glucose injection: 23.7 mM
Sprague-Dawley rats; saline 987±39
  60-min glucose AUC: 1096 ± 68 mM·min
Diabetic db/db mice; diabetic db/db mice
  Glucose-lowering ED50: 20.6 µg
